Holding throughout (assay): DTP human tumour cell line panel, 48 h
For assay [1], the system named is HL-60.
Assay [2] relates to MDA-N.
Assay [3] deals with K562.
For assay [4], the system named is NCI-H23.
Assay [5] deals with SF-268.
Assay [6] concerns MDA-MB-435.
For assay [7], the system named is RXF 393.
Assay [8] concerns LOX IMVI.
For assay [9], the system named is MCF7.
Assay [10] relates to SK-MEL-2.
Assay [11] has as its system MOLT-4.
Assay [12] has as its system HT-29.
Assay [13] concerns IGROV-1.
For assay [14], the system named is SW-620.
For assay [15], the system named is COLO 205.
Assay [16] relates to CCRF-CEM.
For assay [17], the system named is SK-MEL-28.
Assay [18] deals with T47D.
Assay [19] deals with OVCAR-3.
Assay [20] relates to KM12.

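96-well plates; 48 h exposure; 5 concentrations. Endpoints by linear interpolation between flanking doses. Not reached: highest tested concentration assigned. Abbreviation: GI50, concentration required for 50% inhibition of growth.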 Activity calls are given as the source filed them. Cut-off read from the data, not from the text of the source: active = GI50 up to about 1.1 µM and inactive = higher.

As to `CC[C@](O)(CC(=O)O[C@H]1C(=O)O[C@@H]2C[C@H]3C(C)=CC(=O)[C@@H](O)[C@]3(C)[C@H]3[C@@]4(O)OC[C@]32[C@@H]1[C@@H](C)[C@H]4O)C(C)C`, the GI50 in assay [1], in assay [2], in assay [3], in assay [4], in [5] and in assay [6] was < 0.01 µM (active) in each case. Moreover, the GI50 in assay [7], in assay [8], in [9], in [10], in assay [11] and in [12] was < 0.01 µM (active) each time. Moreover, the GI50 in assay [13], in assay [14], in [15], in assay [16], in assay [17] and in [18] was < 0.01 µM (active) each time. The 50% growth inhibitory concentration (GI50) in assay [19] and in [20] was < 0.01 µM (active) each time.

As to `CCCCCCCCP(=O)(O)OP(=O)(O)OCC1OC(n2ccc(N)nc2=O)C(O)C1O` (centres undefined), the GI50 in [1], in assay [2], in assay [3], in [4], in [5] and in [6] was > 100 µM (inactive) each time. The GI50 in [7], in assay [8], in [9], in assay [10], in assay [11] and in assay [12] was > 100 µM (inactive) throughout. In addition, the GI50 in [13], in assay [14], in [15], in assay [16], in assay [17] and in assay [18] was > 100 µM (inactive) in each case. In addition, the GI50 in assay [19] and in [20] was > 100 µM (inactive) each time.

On to `OCc1ccc(-c2ccc(-c3ccc(CO)s3)o2)s1`, for which the GI50 was 3.56 µM (inactive) in [1]; 5.06 µM (inactive) in assay [2]; 0.596 µM (active) in [3]; 17.9 µM (inactive) in assay [4]; 49 µM (inactive) in assay [5]; 4.05 µM (inactive) in [6]. The concentration for 50% growth inhibition (GI50) in assay [7] was 0.285 µM (active); in assay [8], 21.8 µM (inactive); in assay [9] it was 0.0336 µM (active); in assay [10] it was 23.9 µM (inactive); in assay [11], 3.21 µM (inactive); in assay [12], 0.432 µM (active). Moreover, the GI50 was 0.0373 µM (active) in [13]; 0.224 µM (active) in assay [14]; 0.335 µM (active) in assay [15]; 2.59 µM (inactive) in assay [16]; 42.7 µM (inactive) in assay [17]; 0.31 µM (active) in assay [18]. The GI50 in assay [19] is 0.0703 µM (active); in assay [20] it was 20.7 µM (inactive).

`O=C1C=CC(=O)c2c(O)ccc(O)c21` [NAPHTHAZALIN]: the concentration for 50% growth inhibition (GI50) is 0.292 µM (active) in assay [1]; 2.75 µM (inactive) in assay [2]; 0.425 µM (active) in assay [3]; 2.61 µM (inactive) in assay [4]; 2.52 µM (inactive) in assay [5]; 3.68 µM (inactive) in assay [6]. Also, the concentration for 50% growth inhibition (GI50) is 1.03 µM (active) in assay [7]; 1.56 µM (inactive) in assay [8]; 2.32 µM (inactive) in [9]; 7.64 µM (inactive) in assay [10]; 0.15 µM (active) in [11]; 2.17 µM (inactive) in [12]. For the same molecule, the GI50 was 7.96 µM (inactive) in [13]; 0.377 µM (active) in assay [14]; 0.807 µM (active) in assay [15]; 0.155 µM (active) in assay [16]; 1.34 µM (inactive) in assay [17]; 2.07 µM (inactive) in [18]. Moreover, the results for the GI50 in assay [19] and in assay [20] were 2.09 µM (inactive) and 5.25 µM (inactive), respectively.

Take `Cc1cccc(C)c1NC(=O)C(=O)CC(=O)c1sc(Nc2c(C)cccc2C)nc1C`: the GI50 is 25.5 µM (inactive) in assay [1]; > 100 µM (inactive) in [2]; > 100 µM (inactive) in assay [3]; > 100 µM (inactive) in assay [4]; > 100 µM (inactive) in assay [5]; > 100 µM (inactive) in [6]. For the same molecule, the GI50 in assay [7] is 61.1 µM (inactive); in assay [8], > 100 µM (inactive); in assay [9] it was > 100 µM (inactive); in assay [10], > 100 µM (inactive); in assay [11], > 100 µM (inactive); in [12], > 100 µM (inactive). In addition, the GI50 in [13], in assay [14], in assay [15], in assay [16], in [18] and in [19] was > 100 µM (inactive) throughout. In addition, the GI50 in assay [20] is > 100 µM (inactive).

For the molecule `N#CCCN(CCC#N)c1ccc(/C=C2\N=C(c3ccccc3)N(NC(N)=S)C2=O)cc1`, the GI50 in assay [1] was > 100 µM (inactive); in [2], > 100 µM (inactive); in assay [3] it was > 100 µM (inactive); in assay [5], > 100 µM (inactive); in assay [6] it was 41.4 µM (inactive); in [7], > 100 µM (inactive). Moreover, the GI50 in [8], in assay [9], in assay [10], in assay [11], in [12] and in assay [13] was > 100 µM (inactive) each time. In addition, the GI50 in assay [14], in [15], in assay [16], in assay [17], in assay [18] and in assay [19] was > 100 µM (inactive) each time. For the same molecule, the GI50 in [20] was 12.9 µM (inactive).

With `O=C(c1cccs1)N(Cc1cccnc1)C(=S)N(Cc1cccnc1)C(=O)c1cccs1`, the GI50 is > 100 µM (inactive) in assay [1]; 33.4 µM (inactive) in assay [2]; 26.4 µM (inactive) in assay [3]; > 100 µM (inactive) in assay [4]; 35.6 µM (inactive) in [5]; > 100 µM (inactive) in [6]. In addition, the GI50 in assay [7] was > 100 µM (inactive); in [8] it was 5.5 µM (inactive); in assay [9] it was 4.85 µM (inactive); in [10] it was 26.2 µM (inactive); in [11], > 100 µM (inactive); in assay [12], > 100 µM (inactive). The GI50 in assay [14] is > 100 µM (inactive); in assay [15], > 100 µM (inactive); in assay [16] it was > 100 µM (inactive); in assay [17], > 100 µM (inactive); in [18], > 100 µM (inactive); in assay [19] it was 53.7 µM (inactive). In addition, the GI50 in assay [20] was 24.4 µM (inactive).

On to `CC1(C)OCN(c2ccc(Cl)cc2)Cn2c1nc1ccccc12`, for which the GI50 was 11.2 µM (inactive) in assay [1]; 3.05 µM (inactive) in assay [2]; 0.904 µM (active) in assay [3]; 18.1 µM (inactive) in [4]; 15.8 µM (inactive) in [5]; 0.611 µM (active) in assay [6]. The GI50 is 62.1 µM (inactive) in assay [7]; 3.21 µM (inactive) in [8]; 58.9 µM (inactive) in [9]; > 54 µM (inactive) in assay [10]; 11.6 µM (inactive) in assay [11]; > 100 µM (inactive) in assay [12]. In addition, the GI50 was 2.44 µM (inactive) in [13]; 3.34 µM (inactive) in assay [15]; 11.4 µM (inactive) in assay [16]; > 19.9 µM (inactive) in [17]; > 100 µM (inactive) in assay [18]; > 51.9 µM (inactive) in assay [19]. Further, the GI50 in assay [20] is 1.61 µM (inactive).

For the molecule `COC1=CC(=O)C(O)=C(C[C@@]2(C)[C@@H]3CCC[C@H](COC(=O)CCCCCNC(=O)OC(C)(C)C)[C@@]3(C)CC[C@@H]2C)C1=O`, the GI50 is 3.04 µM (inactive) in assay [1]; > 10 µM (inactive) in assay [2]; 3.86 µM (inactive) in [3]; 5.85 µM (inactive) in assay [5]; > 10 µM (inactive) in assay [6]; 3.67 µM (inactive) in [7]. The GI50 was > 10 µM (inactive) in assay [8]; 4.22 µM (inactive) in assay [9]; > 10 µM (inactive) in assay [10]; 3.1 µM (inactive) in assay [11]; 5.12 µM (inactive) in assay [12]; 3.61 µM (inactive) in assay [13]. Moreover, the GI50 is 6.34 µM (inactive) in assay [14]; 4.08 µM (inactive) in assay [15]; 1.09 µM (active) in [16]; 8.63 µM (inactive) in assay [17]; 4.45 µM (inactive) in [18]; 5.92 µM (inactive) in assay [19]. Also, in assay [20], the GI50 is > 10 µM (inactive).

Regarding `CSc1nc(=S)[nH]c2[nH]nc(C)c12`, the GI50 in assay [1], in [2], in [3], in assay [4], in assay [5] and in assay [6] was > 100 µM (inactive) each time. For the same molecule, the GI50 in assay [7], in [8], in [9], in assay [10], in assay [11] and in assay [12] was > 100 µM (inactive) each time. In addition, the GI50 in [14], in assay [15], in [16], in assay [17], in assay [18] and in [19] was > 100 µM (inactive) throughout. Further, the GI50 in [20] is > 100 µM (inactive).

(Values after ChEMBL document CHEMBL1201862, “PubChem BioAssay data set” (2004).)
